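GI50 marks 50% less growth. The concentration for full growth arrest is given as TGI.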
How the values were obtained:
Experiment in all cases: NCI anticancer screen, dose series, 384-well format
786-0 renal = test system: 786-0 renal
A498 renal = test system: A498 renal
A549 NSCLC = test system: A549 NSCLC
ACHN renal = test system: ACHN renal
BT-549 breast = test system: BT-549 breast
CAKI-1 renal = test system: CAKI-1 renal
CCRF-CEM leukemia = test system: CCRF-CEM leukemia
COLO 205 colon = test system: COLO 205 colon
DU-145 prostate = test system: DU-145 prostate
EKVX NSCLC = test system: EKVX NSCLC
HCC-2998 colon = test system: HCC-2998 colon
HCT-15 colon = test system: HCT-15 colon
HL-60(TB) leukemia = test system: HL-60(TB) leukemia
HOP-62 NSCLC = test system: HOP-62 NSCLC
HT29 colon = test system: HT29 colon
IGROV1 ovarian = test system: IGROV1 ovarian
K-562 leukemia = test system: K-562 leukemia
KM12 colon = test system: KM12 colon
LOX IMVI melanoma = test system: LOX IMVI melanoma
M14 melanoma = test system: M14 melanoma
MALME-3M melanoma = test system: MALME-3M melanoma
MCF7 breast = test system: MCF7 breast
MDA-MB-231 breast = test system: MDA-MB-231 breast
MDA-MB-435 melanoma = test system: MDA-MB-435 melanoma
MDA-MB-468 breast = test system: MDA-MB-468 breast
MOLT-4 leukemia = test system: MOLT-4 leukemia
NCI-H226 lung = test system: NCI-H226 lung
NCI-H23 lung = test system: NCI-H23 lung
NCI-H322M lung = test system: NCI-H322M lung
NCI-H460 NSCLC = test system: NCI-H460 NSCLC
NCI-H522 lung = test system: NCI-H522 lung
NCI/ADR-RES ovarian = test system: NCI/ADR-RES ovarian
OVCAR-3 ovarian = test system: OVCAR-3 ovarian
OVCAR-4 ovarian = test system: OVCAR-4 ovarian
OVCAR-5 ovarian = test system: OVCAR-5 ovarian
OVCAR-8 ovarian = test system: OVCAR-8 ovarian
PC-3 prostate = test system: PC-3 prostate
RPMI-8226 leukemia = test system: RPMI-8226 leukemia
RXF 393 renal = test system: RXF 393 renal
SF-268 CNS = test system: SF-268 CNS
SF-295 CNS = test system: SF-295 CNS
SF-539 CNS = test system: SF-539 CNS
SK-MEL-28 melanoma = test system: SK-MEL-28 melanoma
SK-MEL-5 melanoma = test system: SK-MEL-5 melanoma
SK-OV-3 ovarian = test system: SK-OV-3 ovarian
SN12C renal = test system: SN12C renal
SNB-19 CNS = test system: SNB-19 CNS
SNB-75 CNS = test system: SNB-75 CNS
SR leukemia = test system: SR leukemia
SW-620 colon = test system: SW-620 colon
T-47D breast = test system: T-47D breast
TK-10 renal = test system: TK-10 renal
UACC-257 melanoma = test system: UACC-257 melanoma
UACC-62 melanoma = test system: UACC-62 melanoma
UO-31 renal = test system: UO-31 renal

Cc1nc2ccc(CN(C)c3ccc(C(=O)N[C@@H](CCC(=O)O)C(=O)O)s3)cc2c(=O)[nH]1
GI50 ([…]-0 renal): < 0.01 µM | TGI (786-0 renal): > 100 µM | GI50 (A498 renal): < 0.01 µM | TGI (A498 renal): > 100 µM | GI50 (A549 NSCLC): < 0.01 µM | TGI (A549 NSCLC): > 100 µM | GI50 (ACHN renal): < 0.01 µM | TGI (ACHN renal): > 100 µM | GI50 (BT-549 breast): < 0.01 µM | TGI (BT-549 breast): > 100 µM | GI50 (CAKI-1 renal): < 0.01 µM | TGI (CAKI-1 renal): > 100 µM | GI50 (CCRF-CEM leukemia): < 0.01 µM | TGI (CCRF-CEM leukemia): < 0.01 µM | GI50 (COLO 205 colon): < 0.01 µM | TGI (COLO 205 colon): > 100 µM | GI50 (DU-145 prostate): < 0.01 µM | TGI (DU-145 prostate): > 100 µM | GI50 (EKVX NSCLC): > 100 µM | TGI (EKVX NSCLC): > 100 µM | GI50 (HCC-2998 colon): < 0.01 µM | TGI (HCC-2998 colon): > 100 µM | GI50 (HCT-15 colon): < 0.01 µM | TGI (HCT-15 colon): > 100 µM | GI50 (HL-60(TB) leukemia): < 0.01 µM | TGI (HL-60(TB) leukemia): < 0.01 µM | GI50 (HOP-62 NSCLC): < 0.01 µM | TGI (HOP-62 NSCLC): 0.0195 µM | GI50 (HT29 colon): < 0.01 µM | TGI (HT29 colon): > 100 µM | GI50 (IGROV1 ovarian): 0.0462 µM | TGI (IGROV1 ovarian): > 100 µM | GI50 (K-562 leukemia): < 0.01 µM | TGI (K-562 leukemia): > 100 µM | GI50 (KM12 colon): > 100 µM | TGI (KM12 colon): > 100 µM | GI50 (LOX IMVI melanoma): < 0.01 µM | TGI (LOX IMVI melanoma): > 100 µM | GI50 (M14 melanoma): < 0.01 µM | TGI (M14 melanoma): < 0.01 µM | GI50 (MALME-3M melanoma): 0.0179 µM | TGI (MALME-3M melanoma): > 100 µM | GI50 (MCF7 breast): < 0.01 µM | TGI (MCF7 breast): > 100 µM | GI50 (MDA-MB-231 breast): 8.37 µM | TGI (MDA-MB-231 breast): > 100 µM | GI50 (MDA-MB-435 melanoma): < 0.01 µM | TGI (MDA-MB-435 melanoma): > 100 µM | GI50 (MDA-MB-468 breast): > 100 µM | TGI (MDA-MB-468 breast): > 100 µM | GI50 (MOLT-4 leukemia): < 0.01 µM | TGI (MOLT-4 leukemia): < 0.01 µM | GI50 (NCI-H226 lung): 55.5 µM | TGI (NCI-H226 lung): > 100 µM | GI50 (NCI-H23 lung): 0.49 µM | TGI (NCI-H23 lung): > 100 µM | GI50 (NCI-H322M lung): > 100 µM | TGI (NCI-H322M lung): > 100 µM | GI50 (NCI-H460 NSCLC): < 0.01 µM | TGI (NCI-H460 NSCLC): > 100 µM | GI50 (NCI-H522 lung): < 0.01 µM | TGI (NCI-H522 lung): < 0.01 µM | GI50 (NCI/ADR-RES ovarian): < 0.01 µM | TGI (NCI/ADR-RES ovarian): < 0.01 µM | GI50 (OVCAR-3 ovarian): < 0.01 µM | TGI (OVCAR-3 ovarian): > 100 µM | GI50 (OVCAR-4 ovarian): > 100 µM | TGI (OVCAR-4 ovarian): > 100 µM | GI50 (OVCAR-5 ovarian): < 0.01 µM | TGI (OVCAR-5 ovarian): > 100 µM | GI50 (OVCAR-8 ovarian): < 0.01 µM | TGI (OVCAR-8 ovarian): > 100 µM | GI50 (PC-3 prostate): < 0.01 µM | TGI (PC-3 prostate): > 100 µM | GI50 (RPMI-8226 leukemia): < 0.01 µM | TGI (RPMI-8226 leukemia): < 0.01 µM | GI50 (RXF 393 renal): 0.0119 µM | TGI (RXF 393 renal): > 100 µM | GI50 (SF-268 CNS): < 0.01 µM | TGI (SF-268 CNS): < 0.01 µM | GI50 (SF-295 CNS): < 0.01 µM | TGI (SF-295 CNS): < 0.01 µM | GI50 (SF-539 CNS): < 0.01 µM | TGI (SF-539 CNS): > 100 µM | GI50 (SK-MEL-28 melanoma): < 0.01 µM | TGI (SK-MEL-28 melanoma): > 100 µM | GI50 (SK-MEL-5 melanoma): > 100 µM | TGI (SK-MEL-5 melanoma): > 100 µM | GI50 (SK-OV-3 ovarian): < 0.01 µM | TGI (SK-OV-3 ovarian): > 100 µM | GI50 (SN12C renal): < 0.01 µM | TGI (SN12C renal): < 0.01 µM | GI50 (SNB-19 CNS): < 0.01 µM | TGI (SNB-19 CNS): 0.0987 µM | GI50 (SNB-75 CNS): < 0.01 µM | TGI (SNB-75 CNS): > 100 µM | GI50 (SR leukemia): < 0.01 µM | TGI (SR leukemia): < 0.01 µM | GI50 (SW-620 colon): < 0.01 µM | TGI (SW-620 colon): > 100 µM | GI50 (T-47D breast): < 0.01 µM | TGI (T-47D breast): > 100 µM | GI50 (TK-10 renal): < 0.01 µM | TGI (TK-10 renal): > 100 µM | GI50 (UACC-257 melanoma): 6.07 µM | TGI (UACC-257 melanoma): > 100 µM | GI50 (UACC-62 melanoma): 0.0233 µM | TGI (UACC-62 melanoma): > 100 µM | GI50 (UO-31 renal): < 0.01 µM | TGI (UO-31 renal): > 100 µM

— PubChem BioAssay (NCI)
